Assay results reported in article PMC6005460, “Discovery of a novel potent peptide agonist to adiponectin receptor 1” (PLoS ONE, 2018).
Converted amounts (≈) assume the structure as drawn. Each block holds one molecule with its values, some of them ahead of it. Where a SMILES comes first, the peptide text is derived from it. Where no end group is shown, it is not given here. [ ]: non-standard residue; d: D form. Nva = CCC[C@H](N)C(=O)O

Columns and labels:
[1] = system: AdipoR1-mediated AMPK activation (pAMPK Thr172) in differentiated C2C12 myotubes; test: AMPK activation in differentiated C2C12 myotubes (Western blot); assay type: cell-based, Mouse; conditions: differentiated C2C12 myotubes, 0.8, 4 and 20 μM, in words
Method: (§1) Mouse C2C12 myoblasts (American Type Culture Collection) were maintained in Dulbecco’s modified Eagle’s medium (DMEM) supplemented with 10% FBS. C2C12 myotube was obtained by culturing myoblasts in DMEM containing 2% horse serum for at least 5 days with daily media change. On the fifth day, differentiation of cells could be confirmed by multinucleated contracted myotubes. C2C12 myotubes were then treated with selected peptide candidates at indicated concentrations for 30 minutes. As a positive control, 2 μg/ml recombinant human globular adiponectin and indicated concentrations of ADP355 were used.
(§2) Cell lysates were subjected to SDS-PAGE and western blot analysis. Briefly, cells were lysed with protein lysis buffer (RIPA, Thermo) followed by heat denaturation. Five micrograms of whole cell proteins were applied to SDS-PAGE. After electrophoresis, the proteins were transferred onto PVDF membrane, followed by membrane blocking in TBS-T buffer containing 5% non-fat dry milk for 1 hour at room temperature. The membrane was probed with the following different primary antibodies: anti-phosphorylated-AMPK (Thr172) (Cell Signaling), anti-tAMPK (Cell Signaling), anti-pACC, and anti-GAPDH (Santa-Cruz). […] Signals from Western blot were quantified by using Image Lab Software 6.0 (Bio-Rad).

AdipoR1-Δ88 = target: T1, AdipoR1-Δ88 (Homo sapiens, UniProt Q96A54); test: Surface plasmon resonance binding to immobilized AdipoR1-Δ88; conditions: for SPR screening of designed peptides, selection: Biacore T-200, selected versus ADP355 by concentration-dependent signal increase, dissociation rate and estimated Kd, 25 candidate peptides
T1 construct: made in house; host or cells: Sf9 insect cells (Bac-to-Bac baculovirus)
T1 sequence (Q96A54 89-375 limits assumed): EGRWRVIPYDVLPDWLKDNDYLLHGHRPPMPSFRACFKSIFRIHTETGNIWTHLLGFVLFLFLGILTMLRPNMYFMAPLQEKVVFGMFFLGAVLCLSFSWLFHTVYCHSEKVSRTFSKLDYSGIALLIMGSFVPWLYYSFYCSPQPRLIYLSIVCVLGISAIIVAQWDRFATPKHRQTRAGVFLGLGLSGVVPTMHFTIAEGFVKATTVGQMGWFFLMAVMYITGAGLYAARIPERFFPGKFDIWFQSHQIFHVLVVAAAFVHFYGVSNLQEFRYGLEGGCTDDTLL
Method: DNA gene fragment encoding AdipoR1 fused to an N-terminal flag tag was synthesized after codon optimization for insect cell expression (Integrated DNA Technologies). Full length AdipoR1 and AdipoR1-Δ88 were expressed in SF9 cell line using Bac-to-Bac Baculovirus system and purified following the procedure described by T. Tanabe et. al.. Briefly, 1 L SF9 cells infected with amplified baculovirus were cultured in SF-900 III SFM media (Thermo Fisher Scientific) for 3 days at 27°C. Harvested cells were disrupted by dounce homogenization, followed by centrifugation at 30,000 rpm for 2 hours. Collected raw membrane were washed with HEPES buffer and stored in -80°C after flash-freezing. Membranes were solubilized with 1% DDM (Anatrace) and recombinant AdipoR1-Δ88 was purified by using anti-flag tag antibody magnetic beads (Sigma). Eluted AdipoR1-Δ88 by flag peptide (Sigma) was further purified in 20 mM HEPES (pH7.4), 150 mM NaCl, 10% glycerol, 0.025% DDM, and 0.0001% CHS by Superdex 200 (GE Healthcare). The amount of purified AdipoR1-Δ88 was estimated by using Bradford staining.
In order to screen peptide library against AdipoR1, purified AdipoR1-Δ88 was immobilized onto S-series CM5 chip (GE Healthcare Life Science). Since AdipoR1-Δ88 was solubilized with a detergent-containing buffer solution, pH scouting solutions with various pH from 3.5 to 5.5 were prepared with the same detergent solution, 0.025% DDM and 0.0001% cholesteryl-hemi-succinate (CHS, Anatrace). At pH 5, AdipoR1-Δ88 was immobilized at around 4000 response unit using amine coupling method though EDC/NHS. After enough stabilization with running buffer consisting of 20 mM HEPES (pH7.4), 150 mM NaCl, 10% glycerol, 0.025% DDM, and 0.0001% CHS, serial concentrations from 1 to 100 μM were injected into reference and sample cells with 60-second contact time, 200-second dissociation time, and 30 μl/min flow rate at 4°C. The resulting sensorgrams were double-blanked by reference cell and buffer injection.

AdipoRs = conditions: previous studies; cited from earlier work
Solubility of peptides = assay type: physicochemical
[2] = system: acetyl Co-A carboxylase (ACC) phosphorylation in differentiated C2C12 myotubes; test: ACC phosphorylation in differentiated C2C12 myotubes (Western blot); assay type: cell-based, Mouse; conditions: PEGylated BHD1028, Western blot, in words
Method: as §1, §2

[3] = target: T2, AdipoR1-Δ88 (adiponectin receptor 1 lacking the N-terminal 88 residues) (human, UniProt Q96A54 89-375); test: SPR; AdipoR1-Δ88 immobilised on CM5 chip by amine coupling at pH 5 (around 4000 RU); peptides 1 to 100 μM injected, 60 s contact, 200 s dissociation, 30 μl/min, 4°C; 20 mM HEPES pH 7.4, 150 mM NaCl, 10% glycerol, 0.025% DDM, 0.0001% CHS; Kd from saturation curves of responses at equilibrium; conditions: both partners purified
T2 construct: Adiponectin receptor 1 (AdipoR1), human; N-terminal 88 residues deleted; gene synthesised, codon-optimised for insect cells; Kept in 0.025% DDM and 0.0001% CHS; The functional rows were done on mouse C2C12 or human HepG2 cells with their own AdipoR1; m1 stands there for AdipoR1; also called AdipR1-Δ88; source: SF9 cells (Bac-to-Bac baculovirus), solubilised with 1% DDM, purified (anti-flag …)
T2 sequence (looked up): T1 sequence (Q96A54 89-375 limits assumed)

- SPR screening of designed peptides, selection (AdipoR1-Δ88): preliminarily selected
Molecule: CC[C@H](C)[C@H](NC(=O)[C@H](CC(N)=O)NC(=O)[C@@H]1CCCN1C(=O)[C@H](Cc1c[nH]cn1)NC(=O)[C@H](Cc1ccc(O)cc1)NC(=O)[C@H](C)NC(=O)[C@H](Cc1ccccc1)NC(=O)[C@H](Cc1ccc(O)cc1)NC(=O)[C@@H](N)Cc1ccccc1)C(=O)N1CCC[C@H]1C(=O)NCC(=O)N[C@@H](CC(C)C)C(=O)N[C@@H](Cc1ccccc1)C(=O)N[C@@H](Cc1ccc(O)cc1)C(=O)N[C@@H](Cc1ccccc1)C(=O)O [BHD44] (H-FYFAYHPNIPGLFYF-OH)
- AMPK activation [1]: activated AMPK in a concentration-dependent manner

- Kd (AdipoR1-Δ88; SPR, AdipoR1-Δ88 amine-coupled on CM5 chip, 1 to 100 μM peptide, 4°C, 20 mM HEPES pH7.4, 0.025% DDM, 0.0001% CHS, from saturation curves with responses at equilibrium state): > 100 µM
Molecule: CCC[C@H](NC(=O)[C@@H]1CCCN1C(=O)[C@@H](NC(=O)[C@H](N)CC(N)=O)[C@@H](C)CC)C(=O)N[C@@H](CC(C)C)C(=O)N[C@@H](Cc1ccc(O)cc1)C(=O)N[C@H](CO)C(=O)N[C@@H](Cc1ccccc1)C(=O)N[C@@H](C)C(=O)N[C@H](CO)C(N)=O [ADP355, reference compound] (H-[dN]IP[Nva]LY[dS]FA[dS]-NH2)
- cellular efficacy (AdipoRs): nano molar concentration
- SPR response (AdipoR1-Δ88; SPR, AdipoR1-Δ88 on CM5 chip, serial concentrations 1 to 100 μM, in words): very weak SPR responses except 100 μM concentration

Molecule: PEGylated BHD1028: BHD1028 N-terminally mono-PEGylated with 5000 Da polyethylene glycol ({PEG 5000 Da}-YYFAYHPNIPGLYYF)
- solubility after PEGylation (Solubility of peptides; modified with 5000 Da of PEG, in words): much enhanced solubility
- ACC activation, concentration dependence [2]: concentration dependent

- solubility in DMSO (Solubility of peptides; DMSO): 100 mM (≈ 193 mg/mL)
- solubility (Solubility of peptides; aqueous buffer, PBS buffer pH 7.4, unmodified peptide): ≤ 0.05 mM
- SPR screening of designed peptides, selection (AdipoR1-Δ88): preliminarily selected
- dissociation in the SPR sensorgram (AdipoR1-Δ88; among screened peptides, in words): slowest dissociation
Molecule: CC[C@H](C)[C@H](NC(=O)[C@H](CC(N)=O)NC(=O)[C@@H]1CCCN1C(=O)[C@H](Cc1c[nH]cn1)NC(=O)[C@H](Cc1ccc(O)cc1)NC(=O)[C@H](C)NC(=O)[C@H](Cc1ccccc1)NC(=O)[C@H](Cc1ccc(O)cc1)NC(=O)[C@@H](N)Cc1ccc(O)cc1)C(=O)N1CCC[C@H]1C(=O)NCC(=O)N[C@@H](CC(C)C)C(=O)N[C@@H](Cc1ccc(O)cc1)C(=O)N[C@@H](Cc1ccc(O)cc1)C(=O)N[C@@H](Cc1ccccc1)C(=O)O [BHD1028] (H-YYFAYHPNIPGLYYF-OH)

- SPR screening of designed peptides, selection (AdipoR1-Δ88): preliminarily selected
Molecule: CC[C@H](C)[C@H](NC(=O)[C@H](CC(N)=O)NC(=O)[C@@H]1CCCN1C(=O)[C@H](Cc1c[nH]cn1)NC(=O)[C@H](Cc1ccc(O)cc1)NC(=O)[C@H](C)NC(=O)[C@H](Cc1ccccc1)NC(=O)[C@H](Cc1ccc(O)cc1)NC(=O)[C@@H](N)Cc1c[nH]c2ccccc12)C(=O)N1CCC[C@H]1C(=O)NCC(=O)N[C@@H](CC(C)C)C(=O)N[C@@H](Cc1c[nH]c2ccccc12)C(=O)N[C@@H](Cc1ccc(O)cc1)C(=O)N[C@@H](Cc1ccccc1)C(=O)O [BHD43] (H-WYFAYHPNIPGLWYF-OH)
- AMPK activation [1]: activated AMPK in a concentration-dependent manner

- Kd [3]: 4.3 µM
B1: BHD44 (peptide)
peptide: FYFAYHPNIPGLFYF
notes: designed 15-mer, adiponectin-mimetic; free N- and C-termini as printed (NH2-...-COOH); source: synthetic peptide (AnyGen Ltd.)

- Kd [3]: 16 µM
B2: BHD1028 (peptide)
peptide: YYFAYHPNIPGLYYF
notes: designed 15-mer, adiponectin-mimetic; free N- and C-termini as printed (NH2-...-COOH); also called BHD31; source: synthetic peptide (AnyGen Ltd.)

- Kd [3]: 10 µM
B3: BHD43 (peptide)
peptide: WYFAYHPNIPGLWYF
notes: as for B1
